Test results as given in patent US7037917B2, “HIV replication inhibiting pyrimidines” (Janssen Pharmaceutica, N.V., priority 1998, dated 2006).
Where a name gives a salt, the structure may show the parent alone.

system: not listed separately; assay: cytotoxicity in mock-infected MT-4 cells (MTT); type: cell-based; conditions: human, mock-infected MT-4 cells; concentration reducing absorbance of mock-infected MT-4 control by 50%; MTT

Point of comparison: Cc1cc(Br)c(Nc2nc(Nc3ccc(C#N)cc3)ncc2Cl)c(Br)c1 [Compound 10, 4-[[5-chloro-4-[(2,6-dibromo-4-methylphenyl)amino]-2-pyrimidinyl]amino]benzonitrile], CC50 0.4 µM. Against it:
- Cc1cc(C#N)cc(C)c1Oc1nc(Nc2ccc(C#N)cc2)nc(N)c1Br [Compound 46, 4-[[4-amino-5-bromo-6-(4-cyano-2,6-dimethylphenyloxy)-2-pyrimidinyl]amino]benzonitrile] — higher, > 200 µM
- Cc1cc(C)c(Nc2nc(Nc3ccc(C#N)cc3)nc(N)c2Cl)c(C)c1.O=C(O)C(F)(F)F [Compound 4, 4-[[4-amino-5-chloro-6-[(2,4,6-trimethylphenyl)amino]-2-pyrimidinyl]amino]benzonitrile trifluoroacetate (1:1)] — 25-fold higher, 10 µM
- Cc1cc(C)c(Nc2ncc(Cl)c(Nc3ccc(C#N)cc3)n2)c(C)c1 [Compound 1, 4-[[5-chloro-2-[(2,4,6-trimethylphenyl)amino]-4-pyrimidinyl]amino]benzonitrile] — 27-fold higher, 10.9 µM
- Cc1cc(C)c(Nc2nc(Nc3ccc(C#N)cc3)ncc2Cl)c(C)c1 [Compound 5, 4-[[5-chloro-4-[(2,4,6-trimethylphenyl)amino]-2-pyrimidinyl]amino]benzonitrile] — the same, 0.4 µM
- Cc1cc(C#N)cc(C)c1Oc1nc(Nc2ccc(C#N)cc2)ncc1Br [Compound 17, 4-[[5-bromo-4-(4-cyano-2,6-dimethylphenoxy)-2-pyrimidinyl]amino]benzonitrile] — higher, > 10 µM
- COC(=O)COCC(=O)N(c1ccc(C#N)cc1)c1ncc(Br)c(Oc2c(C)cc(C#N)cc2C)n1 [Compound 61] — higher, > 100 µM
- Cc1cc(C)c(Nc2nc(Nc3ccc(C#N)cc3)ncc2Br)c(C)c1 [Compound 3, 4-[[5-bromo-4-[(2,4,6-trimethylphenyl)amino]-2-pyrimidinyl]amino]benzonitrile] — 11-fold higher, 4.4 µM
- Cc1cc(C)c(Nc2ncc(Br)c(Nc3ccc(C#N)cc3)n2)c(C)c1 [Compound 2, 4-[[5-bromo-2-[(2,4,6-trimethylphenyl)amino]-4-pyrimidinyl]amino]benzonitrile] — 210-fold higher, 82.6 µM
- Cc1cc(C)c(Oc2nc(Nc3ccc(C#N)cc3)ncc2Cl)c(C)c1 [Compound 6, 4-[[5-chloro-4-(2,4,6-trimethylphenoxy)-2-pyrimidinyl]amino]benzonitrile] — higher, > 100 µM

system: mock-infected MT-4 cells; assay: cytotoxicity in mock-infected MT-4 cells (MTT); type: cell-based; conditions: not given

Point of comparison: Cc1cc(C#N)cc(C)c1Oc1nc(N(COC(=O)C(C)(C)C)c2ccc(C#N)cc2)ncc1Br [Compound 60], CC50 74.5 µM. Against it:
- N#Cc1ccc(Nc2ncc(Cl)c(Nc3c(F)cc(Br)cc3Br)n2)cc1 [Compound 11] — 190-fold lower, 0.4 µM
- Cc1cc(Cl)cc(C)c1Oc1nc(Nc2ccc(C#N)cc2)ncc1Cl [Compound 16] — higher, > 100 µM
- Cc1cc(C#N)cc(C)c1Nc1nc(Nc2ccc(C#N)cc2)ncc1Cl [Compound 13] — 190-fold lower, 0.4 µM
- Cc1cc(Br)cc(Cl)c1Oc1nc(Nc2ccc(C#N)cc2)ncc1Cl [Compound 15] — higher, > 100 µM
- Cc1cc(C(C)(C)C)cc(C)c1Nc1nc(Nc2ccc(C#N)cc2)ncc1Cl [Compound 12] — 1.5-fold lower, 48.5 µM
- Cc1cc(C#N)cc(C)c1Oc1nc(Nc2ccc(C#N)cc2)ncc1Cl [Compound 18] — not separable, > 10 µM
- Cc1cc(Br)cc(C)c1Nc1nc(Nc2ccc(C#N)cc2)ncc1Cl [Compound 9] — 62-fold lower, 1.2 µM
- Cc1cc(C)c(Sc2nc(Nc3ccc(C#N)cc3)ncc2Cl)c(C)c1 [Compound 7] — higher, > 100 µM
- Cc1cc(Br)cc(C)c1Oc1nc(Nc2ccc(C#N)cc2)ncc1Cl [Compound 8] — higher, > 100 µM

system: not given; assay: not given; conditions: not given

Work on Cc1cc(C#N)cc(C)c1Oc1nc(Nc2ccc(C#N)cc2)ncc1N [Compound 50, 4-[[5-amino-4-(4-cyano-2,6-dimethylphenoxy)-2-pyrimidinyl]amino]benzonitrile] yielded a melting point of over 300 °C.

Compared with Cc1cc(C#N)cc(C)c1Nc1nc(Nc2ccc(C#N)cc2)nc(Cl)c1Br [Compound 42, 4-[[5-bromo-4-chloro-6-[(4-cyano-2,6-dimethylphenyl)amino]-2-pyrimidinyl]amino]benzonitrile], Cc1cc(C)c(Nc2nc(Nc3ccc(C#N)cc3)nc(Cl)c2Br)c(C)c1 [Compound 41, 4-[[5-bromo-4-chloro-6-[(2,4,6-trimethylphenyl)amino]-2-pyrimidinyl]amino]benzonitrile] is lower in melting point: 259 to 260 °C for the first, 220 to 221 °C for the second.

First: C#Cc1cnc(Nc2ccc(C#N)cc2)nc1Nc1c(C)cc(C)cc1C [Compound 52, 4-[[5-ethynyl-4-[(2,4,6-trimethylphenyl)amino]-2-pyrimidinyl]amino]benzonitrile]
Second: Cc1cc(C)c(Nc2nc(Nc3ccc(C#N)cc3)ncc2N)c(C)c1 (as salt: trifluoroacetate) [Compound 51, 4-[[5-amino-4-[(2,4,6-trimethylphenyl)amino]-2-pyrimidinyl]amino]benzonitrile]
The melting point of the first is lower: 165 to 175 °C for the first, 224 to 225 °C for the second.

Compared with C=Cc1cnc(Nc2ccc(C#N)cc2)nc1Nc1c(C)cc(C)cc1C (as salt: trifluoroacetate) [Compound 54, 4-[[5-ethenyl-4-[(2,4,6-trimethylphenyl)amino]-2-pyrimidinyl]amino]benzonitrile], Cc1cc(C)c(Nc2nc(Nc3ccc(C#N)cc3)ncc2-c2ccccc2)c(C)c1 [Compound 53, 4-[[5-phenyl-4-[(2,4,6-trimethylphenyl)amino]-2-pyrimidinyl]amino]benzonitrile] is lower in melting point: 237 to 242 °C for the first, 209 to 214 °C for the second.

First: CONc1nc(Nc2ccc(C#N)cc2)nc(Oc2c(C)cc(C#N)cc2C)c1Br [Compound 48, 4-[[5-bromo-4-(4-cyano-2,6-dimethylphenoxy)-6-(methoxyamino)-2-pyrimidinyl]amino]benzonitrile]
Second: Cc1cc(C#N)cc(C)c1Oc1nc(Nc2ccc(C#N)cc2)nc(C)c1Br [Compound 44, 4-[[5-bromo-4-(4-cyano-2,6-dimethylphenoxy)-6-methyl-2-pyrimidinyl]amino]benzonitrile]
The melting point of the first is lower: 185 to 186 °C for the first, 260 to 262 °C for the second.

Compared with Cc1cc(C#N)cc(C)c1Nc1nc(Nc2ccc(C#N)cc2)ncc1Br [Compound 45, 4-[[5-bromo-6-[(4-cyano-2,6-dimethylphenyl)amino]-2-pyrimidinyl]amino]benzonitrile], Cc1cc(C#N)cc(C)c1Oc1nc(Nc2ccc(C#N)cc2)nc(NCCN2CCCC2)c1Br.Cl is lower in melting point: 277 to 280 °C for the first, 208 to 210 °C for the second.

system: HIV-1; assay: not given; conditions: dose achieving 50% protection of HIV-infected MT-4 cells against cytopathic effect; MTT, OD 540 nm

Cc1cc(C#N)cc(C)c1Oc1nc(N(COC(=O)C(C)(C)C)c2ccc(C#N)cc2)ncc1Br [Compound 60] showed an IC50 of 0.002 µM.

same assay, conditions: ratio of CC50 to IC50

In the case of COC(=O)COCC(=O)N(c1ccc(C#N)cc1)c1ncc(Br)c(Oc2c(C)cc(C#N)cc2C)n1 [Compound 61], the “SI (selectivity index)” value is reported as over 52631.

system: HIV-1; assay: microbe, parasite or virus in culture; conditions: Human immunodeficiency virus 1, MT4
Experimental: A rapid, sensitive and automated assay procedure was used for the in vitro evaluation of anti-HIV agents. […] Inhibition of the HIV-induced cytopathic effect was used as the end point. […] The percent protection achieved by the compound in HIV-infected cells was calculated by the following formula:
[formula] whereby (ODT)HIV is the optical density measured with a given concentration of the test compound in HIV-infected cells; (ODC)HIV is the optical density measured for the control untreated HIV-infected cells; (ODC)MOCK is the optical density measured for the control untreated mock-infected cells; all optical density values were determined at 540 nm. […] The ratio of CC50 to IC50 was defined as the selectivity index (SI).

For COC(=O)COCC(=O)N(c1ccc(C#N)cc1)c1ncc(Br)c(Oc2c(C)cc(C#N)cc2C)n1 [Compound 61], the IC50 was 0.002 µM.
